Entries after “also recorded” stand apart in the source; their conditions may differ.

For the assay, the system named is Perkinsus proliferation. The assay can be described thus: Effect of selectable marker candidates on Perkinsus proliferation (OD600 over time, visual inspection of treated cells). Particulars: for position of OD600 curve in FIG. 2: at 15 days, curves ranked top to bottom; for effect on parasite growth / Perkinsus proliferation: FIG. 2, optical density (OD600) as a function of time in days. The assay is classed as cell-based, Perkinsus marinus. As for the experimental part: FIG. 2 is a graph of Optical density (OD600) as a function of time, in days, for various selectable marker candidates for their effect on Perkinsus proliferation. […]
G418 (800 μg/ml) was highly toxic, with visible effects six days after treatment. […] Visual inspection of the treated cells indicated changes in the morphology and cell death. These changes were more evident for G418 and pyrimethamine than with the CAP treatment.

`CN[C@@H]1[C@@H](O)[C@@H](O[C@@H]2[C@@H](O)[C@H](O[C@H]3O[C@H]([C@@H](C)O)[C@@H](O)[C@H](O)[C@H]3N)[C@@H](N)C[C@H]2N)OC[C@]1(C)O` [G418]: the “effect on parasite growth / Perkinsus proliferation” value was “inhibited parasite growth; also recorded: inhibition of Perkinsus proliferation, especially G418”. Besides, the “position of OD600 curve in FIG. 2” value (100 μg/ml) is reported as “lowest curve”. Moreover, the “position of OD600 curve in FIG. 2” value (400 μg/ml) is “seventh highest curve”. Also, for the setting “800 μg/ml”, the “time to visible effects after treatment” value was “six”, the “toxicity to the parasite” value was “highly toxic” and the “position of OD600 curve in FIG. 2” value is given as “sixth highest curve”. The “time to cells dying after treatment” value (100 and 400 μg/ml) was found to be 15 days. The “changes in the morphology and cell death, visual inspection of treated cells” value (compared with the CAP treatment) is given as “more evident”. Besides, the “effect on parasite growth” value (lower doses tested, 100 and 400 μg/ml) is “still inhibited parasite growth”.
With `O=C(N[C@H](CO)[C@H](O)c1ccc([N+](=O)[O-])cc1)C(Cl)Cl` [chloramphenicol], the “effect on parasite growth / Perkinsus proliferation” value was “inhibited parasite growth”. The “position of OD600 curve in FIG. 2” value (50 μg/ml) is reported as “third highest curve”. In addition, where the note is “100 μg/ml”, the “position of OD600 curve in FIG. 2” value is reported as “fourth highest curve”. Besides, the “position of OD600 curve in FIG. 2” value (400 μg/ml) is listed as “fifth highest curve”. In addition, the “effect on parasite growth / Perkinsus proliferation” value (listed as CAP) is recorded as “inhibition of Perkinsus proliferation”.

These data come from patent publication US20100093062A1, “TR[…] FOR PERKINSUS SPECIES” (priority 2007, published 2010).
